Source: patent US20090233999A1, “COMPOSITIONS AND THERAPEUTIC METHODS INVOLVING ISOFLAVONES AND ANALOGUES THEREOF” (NOVOGEN RESEARCH PTY LTD, priority 1999, published 2009)

What was measured:
Type in all cases: in vivo, mouse
TNFα = experiment: UVB psoriasis model: cutaneous TNFα by ELISA; conditions: for suppression of UVB-induced TNF-α level: 40 μM topical
From the text: (§1) Inbred, 6-8 weeks of age female C57/BL6, C3H/HeN and Skh:hr-1 (hairless) mice were fed normal stock rodent rations and tap water ad libitum. One day prior to UVB irradiation, the dorsal hair of C57/BL6 and C3H/HeN mice was removed by clipping. A single UVB tube (Phillips TL-40W/12 RS, Eindhoven, The Netherlands) emitting a spectrum of 280-365 nm with a peak emission at 310 nm, was used as the light source for the experiments. The radiation was filtered through a sheet of 0.125 mm cellulose acetate (Grafix Plastics, OH, USA) to block wavelengths below 290 nm. Irradiance was measured with an IL 1500 radiometer (International Light Inc. Newburyport, Mass.) with a UVB detector (SEE 240/UVB) calibrated to the spectral output, and recorded as 1.71×10-4 W/cm2. Groups of three female C57/BL6 and C3H/HeN mice were exposed unrestrained in their cages to 7.24 kJ/m2 UVB radiation equal to 3× the minimal erythemal dose (MED) in these haired mice (fur clipped), an exposure of approximately 70 min. Control mice were clipped of fur in the same manner but were not exposed to UVB irradiation. Groups of 3 Skh:hr-1 mice received 3.59 kJ/m2 of UVB, which is equal to 3×MED on hairless mouse skin. Temperature under the radiation source was stabilised during the exposures with surrounding curtains and an electric fan.
Cpd. 18 was dissolved as a 40 mM stock solution in DMSO, then diluted in a vehicle of propylene glycol-ethanol-water 1:2:1 to provide solutions of 0, 5, 10, 20 and 40 μM with […]. The vehicle control base lotion contained 0.001% DMSO. An aliquot of 100 μL of lotion was applied to the dorsum of three mice immediately, 1 h and 2 h after UVB irradiation for 24 h time point measurements, or once daily immediately after and for up to the next four days following irradiation, for later time points, and was spread evenly using a micropipette. Control mice were restrained in the same manner but were not exposed to UVB irradiation.
To determine the effect of UVB irradiation on cutaneous TNFα expression, groups of three C57/BL6 and C3H/HeN mice were euthanased before and at several time points up to 72 h following UVB irradiation, with and without topical treatment with 20 μM Cpd. 18, and the mid-dorsal skin was excised. […] Colour development was stopped after 30 min with 50 μL of 1M H2SO4, and quantitated spectrophotometrically at 405 nm. […]

mast cells = experiment: UVB psoriasis model: histochemical identification of dermal mast cells; conditions: 20 μM topical; 72 h post-UVB; UVB alone 14.2, unirradiated 9.8
Description: Groups of 3 Skh:hr-1 mice were exposed to 3×MEdD of UVB radiation, with and without topical treatments of 20 μM Cpd. 18 immediately and at 24 and 48 h post-UVB. The mice were euthanased and, and mid-dorsal skin samples were taken before and at 72 h after irradiation for histological fixation. The samples were fixed for 6 h in Histochoice and processed and wax-embedded as described above. Sections of 5 μm were cut for histochemical identification of mast cells, by staining with 0.1% toluidine blue solution in McIlvane buffer, pH 3. Positively stained cells with a diameter of 10 μm or more in the dermal compartment were counted under light microscopy (Olympus UPlanApo, Japan) using a at 20× magnification, in 10 sequential non-overlapping fields for each of 3 mice per treatment group, and the average mast cell number per field was obtained. Statistical significance of the differences between groups was determined using Student's t test. All the experiments were performed at least twice, with triplicate skin samples.

[1] = system: TNFα, IL-6 and P-cadherin mRNAs; experiment: UVB psoriasis model: RT-PCR of TNF-α, IL-6 and P-cadherin mRNAs in skin; conditions: 20 μM lotion topical at 0, 1 and 2 h post-irradiation
From the text: as §1
Cpd. […]

`COc1ccc(C2=Cc3ccc(O)cc3OC2)cc1OC` [Cpd. 18, 7-Hydroxy-3′,4′-dimethoxyisoflav-3-ene] was tested, and the “suppression of UVB-induced TNF-α level” value (TNFα; C3H/HeN, 3 h post-UVB) was 40%, the “suppression of UVB-induced TNF-α level” value (TNFα; C57/BL6, 3 h post-UVB) was 45% and the “UVB-elevated TNFα levels” value (TNFα; 5-40 μM, dose-dependent, each mouse strain, 3 h post-UVB) was “significantly reduced”. The “TNFα expression, lotion alone” value (TNFα; without UVB) was “no effect”, the “dermal mast cell number” value (mast cells) was 10.0 cells per field and the “production of TNFα, IL-6 and P-cadherin mRNAs post-UVB” value [1] was “markedly reduced”.
